# Values of other authors, collected in article PMC2750848 (Journal of medicinal chemistry, 2008).
# Marks after values point to notes of the source that are not given here.
# System: M. tuberculosis H37Rv
substance,measurement,setting,value
5′-O-[N-(salicyl)sulfamoyl]adenosine [Compound 4],MIC99 (Fe-deficient),Fe-deficient,0.39 ^i µM
same,MIC99 (Fe-rich),Fe-rich,1.56 ^i µM
